44 compounds from patent US20100317607A1, “USE OF COMPOUNDS FOR PREPARING ANTI-TUBERCULOSIS AGENTS” (INFECTIOUS DISEASE RESEARCH INSTITUTE, priority 2007, published 2010) can be followed below.

Converted amounts (≈) assume the structure as drawn. Structures can show the parent of a compound that is named as a salt.

The test system of the test is H37Rv strain of M. tuberculosis. The test can be described thus: Alamar Blue Susceptibility Test (MABA). Type of test: cell-based. Particulars: Mycobacterium tuberculosis; H37Rv strain of M. tuberculosis; Alamar Blue; read-out: MABA (TB growth inhibition, colourimetric assay).
Consider `OC[C@H](Nc1nc(N2CCCCC2)nc2ccccc12)c1ccccc1` [Compound 145, (R)-2-Phenyl-2-(2-(piperidin-1-yl)quinazolin-4-ylamino)ethanol hydrochloride], for which the MIC lay in the range of 50 to 128 µM.

For the compound `Cc1ccc(CNc2nc(NCc3ccc(F)cc3)c3ccccc3n2)o1` [Compound 170, N^4-(4-Fluorobenzyl)-N^2-((5-methylfuran-2-yl)methyl)quinazoline-2,4-diamine], the MIC lay in the range of 10 to 50 µM (≈ 3.62 to 18.1 µg/mL).

Consider `O=C(C1CC1)N1CCN(c2nc(NCc3ccc(F)cc3)c3ccccc3n2)CC1` [Compound 202, Cyclopropyl(4-(4-(4-fluorobenzylamino)quinazolin-2-yl)piperazin-1-yl)methanone hydrochloride], for which the MIC lay in the range of 50 to 128 µM.

As to `CCCNc1nc(NCc2ccccc2)c2ccccc2n1` [Compound 67, N^4-Benzyl-N^2-propylquinazoline-2,4-diamine], the MIC lay within 10 to 50 µM (≈ 2.92 to 14.6 µg/mL).

Turning to `c1ccc(CNc2nc(N3CCSCC3)nc3ccccc23)cc1` [Compound 140, N-Benzyl-2-thiomorpholinoquinazolin-4-amine hydrochloride], the MIC was under 10 µM.

In the case of `Cc1ccc(CNc2nc(N3CCCCC3)nc3ccccc23)o1` [Compound 167, N-((5-Methylfuran-2-yl)methyl)-2-(piperidin-1-yl)quinazolin-4-amine], the MIC is under 10 µM.

Consider `Fc1ccc(C2(Nc3nc(N4CCC(F)(F)CC4)nc4ccccc34)CC2)cc1` [Compound 153, 2-(4,4-Difluoropiperidin-1-yl)-N-(1-(4-fluorophenyl)cyclopropyl)quinazolin-4-amine], for which the MIC is 50 to 128 µM (≈ 19.9 to 51 µg/mL).

Consider `C[C@H](Nc1nc(N2CCCCC2)nc2ccccc12)c1ccccc1` [Compound 32, (S)—N-(1-Phenylethyl)-2-(piperidin-1-yl)quinazolin-4-amine], for which the MIC was 10 to 50 µM (≈ 3.32 to 16.6 µg/mL).

On to `COc1cc2c(cc1OC)CN(c1nc(NCc3ccccc3)c3ccccc3n1)CC2` [Compound 181, N-Benzyl-2-(6,7-dimethoxy-3,4-dihydroisoquinolin-2(1H)-yl)quinazolin-4-amine], for which the MIC fell in the range of 10 to 50 µM (≈ 4.27 to 21.3 µg/mL).

As for `Clc1ccc2nc(N3CCCCC3)nc(NCc3ccccc3)c2c1` [Compound 71, N-Benzyl-6-chloro-2-(piperidin-1-yl)quinazolin-4-amine], the MIC was 10 to 50 µM (≈ 3.53 to 17.6 µg/mL).

Take `CC(C)(C)OC(=O)N1CCN(c2nc(NCc3ccccc3)c3ccccc3n2)CC1` [Compound 31, tert-Butyl 4-(4-(benzylamino)quinazolin-2-yl)piperazine-1-carboxylate]: the MIC lay within 10 to 50 µM (≈ 4.2 to 21 µg/mL).

In the case of `Fc1ccc(CNc2nc(N3Cc4ccccc4C3)nc3ccccc23)cc1` [Compound 179, N-(4-Fluorobenzyl)-2-(isoindolin-2-yl)quinazolin-4-amine hydrochloride], the MIC was under 10 µM.

On to `Clc1ccc(CNc2nc(N3CCCCC3)nc3ccccc23)s1` [Compound 189, N-((5-Chlorothiophen-2-yl)methyl)-2-(piperidin-1-yl)quinazolin-4-amine], for which the MIC was under 10 µM.

`Fc1ccc(CNc2nc(N3CCCCC3)nc3cccc(Cl)c23)cc1` [Compound 183, 5-Chloro-N-(4-fluorobenzyl)-2-(piperidin-1-yl)quinazolin-4-amine]: the MIC fell in the range of 10 to 50 µM (≈ 3.71 to 18.5 µg/mL).

Turning to `Fc1ccc(CNc2nc(N3CCc4ccc(Br)cc4C3)nc3ccccc23)cc1` [Compound 193, 2-(7-Bromo-3,4-dihydroisoquinolin-2(1H)-yl)-N-(4-fluorobenzyl)quinazolin-4-amine], the MIC was 10 to 50 µM (≈ 4.63 to 23.2 µg/mL).

On to `c1ccc2c(c1)CCN(c1nc(N3CCCC3)nc3ccccc13)C2` [Compound 186, 4-(3,4-Dihydroisoquinolin-2(1H)-yl)-2-(pyrrolidin-1-yl)quinazoline], for which the MIC fell in the range of 10 to 50 µM (≈ 3.3 to 16.5 µg/mL).

Regarding `c1ccc(CNc2nc(Nc3ccccc3)nc3ccccc23)cc1` [Compound 23, N^4-Benzyl-N^2-phenylquinazoline-2,4-diamine], the MIC fell in the range of 10 to 50 µM (≈ 3.26 to 16.3 µg/mL).

For the compound `Fc1ccc(CNc2nc(NCCN3CCCCC3)nc3ccccc23)cc1` [Compound 209, N^4-(4-Fluorobenzyl)-N^2-(2-(piperidin-1-yl)ethyl)quinazoline-2,4-diamine hydrochloride], the MIC was 50 to 128 µM.

Consider `OC[C@@H]1CCCN1c1nc(NCc2ccc(F)cc2)c2ccccc2n1` [Compound 198, (S)-(1-(4-(4-Fluorobenzylamino)quinazolin-2-yl)pyrrolidin-2-yl)methanol], for which the MIC fell in the range of 50 to 128 µM (≈ 17.6 to 45.1 µg/mL).

`c1ccc2c(NCc3ccsc3)nc(N3CCCCC3)nc2c1` [Compound 191, 2-(Piperidin-1-yl)-N-(thiophen-3-ylmethyl)quinazolin-4-amine]: the MIC was in the range of 10 to 50 µM (≈ 3.24 to 16.2 µg/mL).

As to `c1ccc2c(c1)CN(c1nc(N3CCCCC3)nc3ccccc13)C2` [Compound 85, 4-(Isoindolin-2-yl)-2-(piperidin-1-yl)quinazoline hydrochloride], the MIC fell in the range of 10 to 50 µM.

In the case of `Fc1ccc(CNc2nc(NC3(c4ccc(F)cc4)CC3)c3ccccc3n2)cc1` [Compound 154, N^2-(4-Fluorobenzyl)-N^4-(1-(4-fluorophenyl)cyclopropyl)quinazoline-2,4-diamine], the MIC was under 10 µM.

On to `COc1cc2nc(NCc3ccc(F)cc3)nc(NCc3ccc(F)cc3)c2cc1OC` [Compound 168, N^2,N^4-bis(4-Fluorobenzyl)-6,7-dimethoxyquinazoline-2,4-diamine], for which the MIC was 10 to 50 µM (≈ 4.36 to 21.8 µg/mL).

Regarding `FC(F)(F)c1ccc(CNc2nc(N3CCCCC3)nc3ccccc23)o1` [Compound 160, 2-(Piperidin-1-yl)-N-((5-(trifluoromethyl)furan-2-yl)methyl)quinazolin-4-amine hydrochloride], the MIC is under 10 µM.

For `OC[C@@H]1CCCN1c1nc(NCc2ccccc2)c2ccccc2n1` [Compound 177, (S)-(1-(4-(Benzylamino)quinazolin-2-yl)pyrrolidin-2-yl)methanol], the MIC is 50 to 128 µM (≈ 16.7 to 42.8 µg/mL).

As to `Cc1ccc([C@@H](C)Nc2nc(N3CCCCC3)nc3ccccc23)cc1` [Compound 101, (R)-2-(Piperidin-1-yl)-N-(1-p-tolylethyl)quinazolin-4-amine], the MIC is 10 to 50 µM (≈ 3.46 to 17.3 µg/mL).

Regarding `Cc1ccc(CCNc2nc(N3CCCCC3)nc3ccccc23)cc1` [Compound 87, N-(4-Methylphenethyl)-2-(piperidin-1-yl)quinazolin-4-amine hydrochloride], the MIC was in the range of 10 to 50 µM.

Take `Fc1ccc(CNc2nc(N3CCCC3)nc3cccc(Cl)c23)cc1` [Compound 182, 5-Chloro-N-(4-fluorobenzyl)-2-(pyrrolidin-1-yl)quinazolin-4-amine]: the MIC was 10 to 50 µM (≈ 3.57 to 17.8 µg/mL).

Turning to `FC1(F)CCN(c2nc(NCc3ccc(OC(F)(F)F)cc3)c3ccccc3n2)CC1` [Compound 163, 2-(4,4-Difluoropiperidin-1-yl)-N-(4-(trifluoromethoxy)benzyl)quinazolin-4-amine], the MIC was 10 to 50 µM (≈ 4.38 to 21.9 µg/mL).

For the compound `c1ccc(CNc2nc(N3CCCCC3)nc3ccccc23)nc1` [Compound 46, 2-(Piperidin-1-yl)-N-(pyridin-2-ylmethyl)quinazolin-4-amine], the MIC was in the range of 50 to 128 µM (≈ 16 to 40.9 µg/mL).

With `CC(C)(Nc1nc(N2CCCC2)nc2ccccc12)c1ccccc1` [Compound 91, N-(2-Phenylpropan-2-yl)-2-(pyrrolidin-1-yl)quinazolin-4-amine], the MIC is 10 to 50 µM (≈ 3.32 to 16.6 µg/mL).

With `CN1CCN(c2nc(NCCNc3ccc([N+](=O)[O-])cc3)c3ccccc3n2)CC1` [Compound 11, N^1-(2-(4-Methylpiperazin-1-yl)quinazolin-4-yl)-N^2-(4-nitrophenyl)ethane-1,2-diamine], the MIC lay in the range of 50 to 128 µM (≈ 20.4 to 52.2 µg/mL).

As for `c1csc(CNc2nc(N3CCCC3)nc3ccccc23)c1` [Compound 187, 2-(Pyrrolidin-1-yl)-N-(thiophen-2-ylmethyl)quinazolin-4-amine], the MIC fell in the range of 10 to 50 µM (≈ 3.1 to 15.5 µg/mL).

Take `CC(C)(C)OC(=O)N1CCCN(c2nc(NCc3ccccc3)c3ccccc3n2)CC1` [Compound 55, tert-Butyl 4-(4-(benzylamino)quinazolin-2-yl)-1,4-diazepane-1-carboxylate]: the MIC fell in the range of 10 to 50 µM (≈ 4.34 to 21.7 µg/mL).

For `Clc1ccc(CNc2nc(N3CCCCC3)c3ccccc3n2)cc1` [Compound 110, N-(4-Chlorobenzyl)-4-(piperidin-1-yl)quinazolin-2-amine hydrochloride], the MIC lay in the range of 10 to 50 µM.

Turning to `O=C1CCN(c2nc(NCc3ccccc3)c3ccccc3n2)CC1` [Compound 139, 1-(4-(Benzylamino)quinazolin-2-yl)piperidin-4-one], the MIC was under 10 µM.

As for `CC(C)(C)OC(=O)N1CCc2c(nc(N3CCCCC3)nc2NCc2ccc(F)cc2)C1` [Compound 184, tert-Butyl 4-(4-fluorobenzylamino)-2-(piperidin-1-yl)-5,6-dihydropyrido[3,4-d]pyrimidine-7(8H)-carboxylate], the MIC was 50 to 128 µM (≈ 22.1 to 56.5 µg/mL).

`Fc1ccc(CNc2nc(NCC3CCCCC3)nc3ccccc23)cc1` [Compound 208, N^2-(Cyclohexylmethyl)-N^4-(4-fluorobenzyl)quinazoline-2,4-diamine]: the MIC lay in the range of 10 to 50 µM (≈ 3.64 to 18.2 µg/mL).

For the compound `Fc1ccc(CNc2nc(NCc3ccc(F)cc3)c3ccccc3n2)cc1` [Compound 119, N^2,N^4-bis(4-Fluorobenzyl)quinazoline-2,4-diamine hydrochloride], the MIC was 10 to 50 µM.

For the compound `Cc1ccc(CNc2nc(NCc3ccc(F)cc3)nc3ccccc23)o1` [Compound 158, N^2-(4-Fluorobenzyl)-N^4-((5-methylfuran-2-yl)methyl)quinazoline-2,4-diamine hydrochloride], the MIC lay in the range of 10 to 50 µM.

`Fc1ccc(CNc2nc(N3CCCCC3)nc3ncccc23)cc1` [Compound 174, N-(4-Fluorobenzyl)-2-(piperidin-1-yl)pyrido[2,3-d]pyrimidin-4-amine]: the MIC fell in the range of 10 to 50 µM (≈ 3.37 to 16.9 µg/mL).

Take `Fc1ccc(CNc2nc(N3CCCCC3)nc3cc(F)ccc23)cc1` [Compound 155, 7-Fluoro-N-(4-fluorobenzyl)-2-(piperidin-1-yl)quinazolin-4-amine]: the MIC is under 10 µM.

With `COC(=O)[C@@H]1CCCN1c1nc(NCc2ccccc2)c2ccccc2n1` [Compound 180, (S)-Methyl 1-(4-(benzylamino)quinazolin-2-yl)pyrrolidine-2-carboxylate], the MIC was in the range of 50 to 128 µM (≈ 18.1 to 46.4 µg/mL).

As for `Cc1ccc(C(C)(C)Nc2nc(N3CCCC3)nc3ccccc23)cc1` [Compound 103, 2-(Pyrrolidin-1-yl)-N-(2-p-tolylpropan-2-yl)quinazolin-4-amine], the MIC lay within 10 to 50 µM (≈ 3.46 to 17.3 µg/mL).
